Columns and labels:
Type in all cases: cell-based
MDA-MB-435 cells = assay: Effect Of Test Compounds On Cell Cycle (propidium iodide, FACS); settings: for % Of Cells In Each Cell Cycle Phase: G1 / % Of Cells In Each Cell Cycle Phase: G2/M / % Of Cells In Each Cell Cycle Phase: S: day 1 post addition; for effect on cell cycle (in words): statement in words, summarizing Tables I-IV
Experimental: For analysis of the effect of the compounds on cell cycle progression, MDA-MB-435 cells (ATCC; Rockville, Md.) were plated at 1×10^6 cells/10 mls per 10 cm dish in the following growth medium: RPMI 1640+10% Heat-Inactivated Fetal Bovine Serum, 2 mM L-glutamine and 50 U/ml pen-strep (all from GIBCO/BRL, Gaithersburg, Md.). The cells were incubated overnight at 37° C. with 5% CO2. The next day, 10 μl of each of the compounds to be tested, in a 100% DMSO solution, was added to individual dishes to obtain /1000× final concentration of the stock solution. In addition, 10 μl 100% DMSO was added to a control dish. The final concentration of DMSO in all plates, including the control, was 0.1%. The plates were returned to the incubator.
Thereafter, at various periods of time, the medium in each plate was removed to a 50 ml centrifuge tube. The cell layer remaining in the dish was then washed with 5 ml of phosphate buffered saline (PBS; GIBCO/BRL). The PBS was removed and combined with the medium in the appropriate tube. The cells were trypsinized for 5 minutes at 37° C., and the solution was collected and combined with the medium and PBS in the appropriate tubes. The tubes were then centrifuged for 5 minutes at 1200 rpm. The cells were fixed by removing the supernatant, tapping the tube to distribute the pellet, then adding 5 mls of cold 70% ethanol while vortexing gently. The cells were then stored at -20° C. for>24 hours.
The cell-containing tubes were taken out of freezer and allowed to sit at room temperature for 20-30 minutes. The tubes were centrifuged at 3000 rpm for 5 minutes. The supernatant was removed, the pellets were washed with 5 ml PBS, and the tubes were centrifuged as above. Subsequently, the supernatant was removed, and the pellet was resuspended in 0.5 ml PBS. Thereafter, 0.5 ml RNAse A (1 mg/ml in PBS) was added to each tube, and the tubes were incubated at 37° C. for 15 minutes. 100 μl propidium iodide (Sigma, St. Louis, Mo.) (1 mg/ml in PBS) was added to each tube, and the tubes were then incubated at room temperature for 2-3 minutes. Each resulting solution was passed through a filter cap tube (Becton Dickinson, San Jose, Calif., #2235).
Samples were read in a FACSort machine (Becton-Dickinson) using the manufacturer's CellQUEST program, and analyzed with the manufacturer is ModFIT software. This measurement provides an indication of the percent of cells in each of the following phases: G0/G1, DNA synthesis (S) and G2/M phases.
The results of a cell cycle progression experiment analyzed at day 1 post addition of test compounds I, II and III are summarized below in Table IV.

MDA-MB-435 = assay: Antiproliferative Activity In Cell Line MDA-MB-435 (MTT); settings: Homo sapiens, average of at least three separate experiments
Experimental: (§1) The estrogen receptor negative epithelial breast carcinoma line (MDA-MB-435) was purchased from American Type Cell Culture Collection (ATCC; Rockville, Md.) and was grown in the medium recommended by ATCC. For analysis of the effect of the test compounds on growth of these cells, the cells were plated at 2000 cells per well in a 96-well tissue culture plate ("test plate"), and were incubated overnight at 37° C. with 5% CO2. The next day, the test compounds were dissolved in 100% dimethyl sulfoxide (DMSO) to yield a 10 mM stock solution. Each compound was diluted with sterile distilled water to 1 mM and then was added to triplicate wells of a 96-well "master plate" containing medium in a sufficient quantity to yield a final concentration of 40 μM. The compounds were serially diluted in medium in the "master plate." One-fourth final volume of the diluted compounds was transferred to duplicate "test plates." DMSO was added to a row of "control cells" such that; the final concentration of DMSO in each well was 0.1%. The "test plates" were returned to the incubator, and 3 days post addition of test compound, one "test plate" was analyzed as described below. Similarly, 5 days after addition of test compound, the second "test plate" also was analyzed as described below.
(§2) 3-(4,5-dimethylthiazole-2-yl)-2,5-diphenyl-2H-tetrazolium bromide (thiazolyl blue; MTT) was added to each well to yield a final concentration of 1 mg/ml. The plate was then incubated at 37° C. for 3 hours. The MTT-containing medium was then removed and 50 μl 100% ethanol was added to each well to dissolve the resulting formazan metabolite. […] Absorbencies were read in a microtiter plate reader (Molecular Dynamics) at a wavelength of 570 nm with a 650 nm reference. Percent inhibition was calculated by subtracting the blank from all wells, then subtracting the division of the average absorbance of each test triplicate by the average of the controls from 1.00. Inhibitory concentrations (IC50 and IC90) were determined from the linear regression of a plot of the logarithm of the concentration versus the percent inhibition.

SW480 = assay: Antiproliferative Activity In Cell Line SW480 (MTT); settings: Homo sapiens, 144 h, 6 days post addition, average of at least three separate experiments
Experimental: [The procedure below names another cell line; the source says it served here with some conditions changed.] as §1
as §2, with “inhibition. […]” for “inhibition.”

HCT-116 = assay: Antiproliferative Activity In Cell Line HCT-116 (MTT); settings: Homo sapiens, 96 h, 4 days post addition, average of at least three separate experiments
Experimental: [The procedure below names another cell line; the source says it served here with some conditions changed.] as §1
as §2, with “inhibition. […]” for “inhibition.”

Compound	effect on cell cycle (in words) (MDA-MB-435 cells)	IC50 (MDA-MB-435)	IC50 (SW480)	IC50 (HCT-116)	% Of Cells In Each Cell Cycle Phase: G1 (MDA-MB-435 cells; 0.03 μM)	% Of Cells In Each Cell Cycle Phase: G2/M (MDA-MB-435 cells; 0.03 μM)	% Of Cells In Each Cell Cycle Phase: S (MDA-MB-435 cells; 0.03 μM)	% Of Cells In Each Cell Cycle Phase: G1 (MDA-MB-435 cells; 0.1 μM)	% Of Cells In Each Cell Cycle Phase: G2/M (MDA-MB-435 cells; 0.1 μM)	% Of Cells In Each Cell Cycle Phase: S (MDA-MB-435 cells; 0.1 μM)	further results
Cn1cc(C2=C(c3c[nH]c4cc([N+](=O)[O-])ccc34)C(=O)NC2=O)c2ccccc21 [Compound III, 3-(1-Methyl-1H-indol-3-yl)-4-(6-nitro-1H-indol-3-yl)-pyrrole-2,5-dione]	cause an accumulation of cells in the G2/m phase of the cell cycle	600 nM	1860 nM	1660 nM							% Of Cells In Each Cell Cycle Phase: G1 (MDA-MB-435 cells; 1 μM): 27.21%; % Of Cells In Each Cell Cycle Phase: G2/M (MDA-MB-435 cells; 1 μM): 42.60%; % Of Cells In Each Cell Cycle Phase: S (MDA-MB-435 cells; 1 μM): 30.19%; % Of Cells In Each Cell Cycle Phase: G1 (MDA-MB-435 cells; 3 μM): 3.26%; % Of Cells In Each Cell Cycle Phase: G2/M (MDA-MB-435 cells; 3 μM): 47.99%; % Of Cells In Each Cell Cycle Phase: S (MDA-MB-435 cells; 3 μM): 48.75%; % Of Cells In Each Cell Cycle Phase: G1 (MDA-MB-435 cells; 10 μM): 10.41%; % Of Cells In Each Cell Cycle Phase: G2/M (MDA-MB-435 cells; 10 μM): 54.34%; % Of Cells In Each Cell Cycle Phase: S (MDA-MB-435 cells; 10 μM): 35.25%
Cn1cc(C2=C(c3cn(CO)c4ccccc34)C(=O)NC2=O)c2ccc([N+](=O)[O-])cc21 [Compound II, 3-(1-Hydroxymethyl-1H-indol-3-yl)-4-(1-methyl-6-nitro-1H-indol-3-yl)-pyrrole-2,5-dione]	cause an accumulation of cells in the G2/m phase of the cell cycle	50 nM	220 nM	230 nM	45.45%	16.50%	38.06%	15.54%	60.40%	24.06%	% Of Cells In Each Cell Cycle Phase: G1 (MDA-MB-435 cells; 0.3 μM): 1.11%; % Of Cells In Each Cell Cycle Phase: G2/M (MDA-MB-435 cells; 0.3 μM): 73.90%; % Of Cells In Each Cell Cycle Phase: S (MDA-MB-435 cells; 0.3 μM): 24.99%
Cn1cc(C2=C(c3c[nH]c4ccccc34)C(=O)NC2=O)c2ccc([N+](=O)[O-])cc21 [Compound I, 3-(1H-Indol-3-yl)-4-(1-methyl-6-nitro-1H-indol-3-yl)-pyrrole-2,5-dione]	cause an accumulation of cells in the G2/m phase of the cell cycle	30 nM	200 nM	170 nM	45.30%	20.03%	34.67%	8.27%	66.52%	25.21%	% Of Cells In Each Cell Cycle Phase: G1 (MDA-MB-435 cells; 0.01 μM): 44.95%; % Of Cells In Each Cell Cycle Phase: G2/M (MDA-MB-435 cells; 0.01 μM): 14.00%; % Of Cells In Each Cell Cycle Phase: S (MDA-MB-435 cells; 0.01 μM): 41.04%

Reference: US6048887A, “Substituted pyrroles” (Hoffmann-La Roche Inc., priority 1999, dated 2000)
